Data from ChEMBL document CHEMBL6182860, “Discovery and rational optimization of 2, 2'-((1H-indole-2,3-diyl) bis (thio))diacetamide as novel SARS-CoV-2 RdRp inhibitors” (Bioorg Med Chem, 2025).
pEC50: −log10 of the molar value.

Assays:
[1] = target: T1, Replicase polyprotein 1ab (Severe acute respiratory syndrome coronavirus 2, UniProt P0DTD1); test: Inhibition of SARS-Cov-2 RdRp expressed in HEK293T cells co-transfected with pCoV-Gluc and pCOVID-nsp12/7/8 incubated for 24 hrs by microplate luminometric analysis; format: cell-based
[2] = Cytotoxicity against HEK293T cells assessed as reduction in cell viability incubated for 24 hrs by CCK-8 assay; format: toxicity, cell-based, HEK-293T; settings: human
[3] = target: Replicase polyprotein 1ab (Severe acute respiratory syndrome coronavirus 2) (UniProt P0DTD1); test: Inhibition of SARS-Cov-2 RdRp expressed in HEK293T cells co-transfected with pCoV-Gluc and pCOVID-nsp12/7/8 at 10 uM incubated for 24 hrs by microplate luminometric analysis relative to control; format: cell-based
[4] = target: T1, Replicase polyprotein 1ab; test: Inhibition of SARS-Cov-2 RdRp expressed in HEK293T cells co-transfected with pCoV-Gluc and pCOVID-nsp12/7/8/10/14 assessed as tolerance to proof reading activity of nsp14/10 exonuclease incubated for 24 hrs by microplate luminometric analysis; format: cell-based
[5] = target: Replicase polyprotein 1ab (Severe acute respiratory syndrome coronavirus 2) (UniProt P0DTD1); test: Inhibition of SARS-Cov-2 RdRp expressed in HEK293T cells co-transfected with pCoV-Gluc and pCOVID-nsp12/7/8 at 3 uM incubated for 24 hrs by microplate luminometric analysis; format: cell-based
[6] = target: Replicase polyprotein 1ab (Severe acute respiratory syndrome coronavirus 2) (UniProt P0DTD1); test: Inhibition of SARS-Cov-2 RdRp expressed in HEK293T cells co-transfected with pCoV-Gluc and pCOVID-nsp12/7/8 assessed as reduction in viral positive strand Gluc-RNA level incubated for 24 hrs by qRT-PCR analysis; format: cell-based
[7] = target: Replicase polyprotein 1ab (Severe acute respiratory syndrome coronavirus 2) (UniProt P0DTD1); test: Inhibition of SARS-Cov-2 RdRp expressed in HEK293T cells co-transfected with pCoV-Gluc and pCOVID-nsp12/7/8 assessed as reduction in viral negative strand Gluc-RNA level incubated for 24 hrs by qRT-PCR analysis; format: cell-based
Human coronavirus NL63 [8] = test: Antiviral activity against HCoV NL63 infected in rhesus monkey LLC-MK2 cells assessed as inhibition of viral replication by measuring maximal inhibition at 50 uM pre-infected for 1 hrs followed by compound administration and measured 120 hrs post-infection by MTS assay relative to control; format: functional; settings: time 119 hrs
Human coronavirus NL63 [9] = test: Antiviral activity against HCoV NL63 infected in rhesus monkey LLC-MK2 cells assessed as inhibition of viral replication pre-infected for 1 hrs followed by compound administration and measured 120 hrs post-infection by MTS assay; format: functional, organism-based; settings: for Activity: time 119.0 hrs
Human coronavirus OC43 [10] = test: Antiviral activity against HCoV OC43 infected in human HCT-8 cells assessed as inhibition of viral replication by measuring maximal inhibition at 50 uM pre-infected for 1 hrs followed by compound administration and measured 120 hrs post-infection by MTS assay relative to control; format: functional; settings: time 119 hrs
[11] = target: Replicase polyprotein 1ab (Severe acute respiratory syndrome coronavirus 2) (UniProt P0DTD1); test: Inhibition of SARS-Cov-2 RdRp expressed in HEK293T cells co-transfected with pCoV-Gluc and pCOVID-nsp12/7/8 at 0.5 to 2 uM incubated for 24 hrs by microplate luminometric analysis; format: cell-based; settings: dose 0.5-2 µM
Human coronavirus OC43 [12] = test: Antiviral activity against HCoV OC43 infected in human HCT-8 cells assessed as inhibition of viral replication pre-infected for 1 hrs followed by compound administration and measured 120 hrs post-infection by MTS assay; format: functional, organism-based; settings: for pEC50: Betacoronavirus 1, HCT-8; for Activity: time 119.0 hrs

SMILES	pEC50 [1]	CC50 at 24 h [2]	inhibition [3]	other results
Cc1ccccc1CNC(=O)CSc1[nH]c2ccccc2c1SCC(=O)Nc1ccc(Cl)c(Cl)c1	5.61	> 100 µM	94.4%	
O=C(CSc1[nH]c2ccccc2c1SCC(=O)Nc1ccc(Cl)c(Cl)c1)NCc1cccc(Cl)c1	5.67	> 100 µM	85.1%	
O=C(CSc1[nH]c2ccccc2c1SCC(=O)Nc1ccc(Cl)c(Cl)c1)NCc1ccccc1	5.50	87.1 µM	97%	
CCOc1ccccc1NC(=O)CSc1c[nH]c2ccccc12			4%	
CCOc1ccccc1CNC(=O)CSc1[nH]c2ccccc2c1SCC(=O)Nc1ccccc1OCC			39.2%	
CCOc1ccccc1NC(=O)CSc1[nH]c2ccccc2c1SCC(=O)Nc1ccccc1OCC			48.5%	
Cc1ccc(CNC(=O)CSc2[nH]c3ccccc3c2SCC(=O)Nc2ccc(Cl)c(Cl)c2)cc1	5.80	> 100 µM	91.9%	
O=C(CSc1[nH]c2ccccc2c1SCC(=O)Nc1ccc(Cl)c(Cl)c1)NCc1ccc(-c2ccccc2)cc1	5.72	75.1 µM	93.8%	
CCOc1ccccc1NC(=O)CSc1c(SCC(=O)NCc2ccc(C)cc2)[nH]c2ccccc12	5.56	> 100 µM	88.3%	
O=C(CSc1[nH]c2ccccc2c1SCC(=O)Nc1ccc(Cl)c(Cl)c1)NCc1ccccc1F	5.84	78.6 µM	93.6%	pEC50 [4]: 5.74; inhibition [5]: Active; Maximum Inhibitory Effect Observed; inhibition [6]: Dose-dependent-effect; Inhibition Effect Were Twice As Potent As Remdesivir At 10 Um; inhibition [7]: Dose-dependent-effect; Inhibition Effect Were Twice As Potent As Remdesivir At 10 Um
CCOc1ccccc1NC(=O)CSc1c(SCC(=O)NCc2ccccc2)[nH]c2ccccc12	5.67	> 100 µM	89.2%	
CCOc1ccccc1NC(=O)CSc1c(SCC(=O)NCc2cccc(Cl)c2)[nH]c2ccccc12	6.24	> 100 µM	94.8%	pEC50 [4]: 6.07; Imax (Human coronavirus NL63 [8]): 80%; pEC50 (Human coronavirus NL63 [9]): 5.39; Activity (Human coronavirus NL63 [9]): Dose-dependent-effect; Imax (Human coronavirus OC43 [10]): 90%; inhibition ([6]; dose 5-10 µM, time 24.0 hrs): Dose-dependent-effect; inhibition ([7]; dose 5-10 µM, time 24.0 hrs): Dose-dependent-effect; inhibition [11]: Active; Better Inhibitory Effect Than Remdesivir Observed; pEC50 (Human coronavirus OC43 [12]): 5.89; Activity (Human coronavirus OC43 [12]): Dose-dependent-effect
CCOc1ccccc1NC(=O)CSc1c(SCC(=O)NCc2ccc(Cl)c(Cl)c2)[nH]c2ccccc12	5.59	> 100 µM	84.8%	
CCOc1ccccc1NC(=O)CSc1c(SCC(=O)NCc2ccccc2Cl)[nH]c2ccccc12	5.59	> 100 µM	80.8%	
CCOc1ccccc1NC(=O)CSc1c(SCC(=O)NCc2ccc(-c3ccccc3)cc2)[nH]c2ccccc12			39.7%	
CCC(CC)COC(=O)[C@H](C)N[P@](=O)(OC[C@H]1O[C@@](C#N)(c2ccc3c(N)ncnn23)[C@H](O)[C@@H]1O)Oc1ccccc1		> 100 µM	87%	pEC50 (Human coronavirus NL63 [9]): 5.47; inhibition ([6]; dose 5-10 µM, time 24.0 hrs): Dose-dependent-effect; inhibition ([7]; dose 5-10 µM, time 24.0 hrs): Dose-dependent-effect; pEC50 (Human coronavirus OC43 [12]): 5.75
CCOc1ccccc1NC(=O)CSc1c(SCC(=O)NCc2ccccc2OC)[nH]c2ccccc12	5.63	> 100 µM	73.8%	
O=C(CSc1[nH]c2ccccc2c1SCC(=O)Nc1ccc(Cl)c(Cl)c1)NCc1ccccc1Cl	5.63	> 100 µM	82%	
CCOc1ccccc1NC(=O)CSc1c(SCC(=O)NCc2cccc(C)c2)[nH]c2ccccc12			40.2%	
O=C(CSc1[nH]c2ccccc2c1SCC(=O)Nc1ccc(Cl)c(Cl)c1)NCc1ccc(Cl)c(Cl)c1	5.69	> 100 µM	89.1%	
COc1ccccc1CNC(=O)CSc1[nH]c2ccccc2c1SCC(=O)Nc1ccc(Cl)c(Cl)c1	5.70	> 100 µM	95.5%	
O=C(CSc1c[nH]c2ccccc12)Nc1ccc(Cl)c(Cl)c1			36%	
CCOc1ccccc1NC(=O)CSc1c(SCC(=O)NCc2ccc(Cl)cc2)[nH]c2ccccc12	5.75	> 100 µM	95.4%	
CCOc1ccccc1CNC(=O)CSc1[nH]c2ccccc2c1SCC(=O)Nc1ccc(Cl)c(Cl)c1	5.84	72.5 µM	92%	pEC50 [4]: 5.77; inhibition [5]: Active; Maximum Inhibitory Effect Observed; inhibition ([6]; dose 5-10 µM, time 24.0 hrs): Dose-dependent-effect; inhibition ([7]; dose 5-10 µM, time 24.0 hrs): Dose-dependent-effect
CCOc1ccccc1NC(=O)CSc1c(SCC(=O)NCc2ccccc2F)[nH]c2ccccc12	6.15	> 100 µM	89.5%	pEC50 [4]: 5.97; Imax (Human coronavirus NL63 [8]): 80%; pEC50 (Human coronavirus NL63 [9]): 4.87; Activity (Human coronavirus NL63 [9]): Dose-dependent-effect; Imax (Human coronavirus OC43 [10]): 90%; inhibition ([6]; dose 5-10 µM, time 24.0 hrs): Dose-dependent-effect; inhibition ([7]; dose 5-10 µM, time 24.0 hrs): Dose-dependent-effect; inhibition [11]: Active; Better Inhibitory Effect Than Remdesivir Observed; pEC50 (Human coronavirus OC43 [12]): 5.82; Activity (Human coronavirus OC43 [12]): Dose-dependent-effect
CCOc1ccccc1NC(=O)CSc1c(SCC(=O)NCc2ccccc2C)[nH]c2ccccc12	5.59	> 100 µM	77.5%	
O=C(CSc1[nH]c2ccccc2c1SCC(=O)Nc1ccc(Cl)c(Cl)c1)NCc1ccc(Cl)cc1	5.73	> 100 µM	96.6%	
O=C(CSc1[nH]c2ccccc2c1SCC(=O)Nc1ccc(Cl)c(Cl)c1)Nc1ccc(Cl)c(Cl)c1	5.61	95.5 µM	88.1%	
Cc1cccc(CNC(=O)CSc2[nH]c3ccccc3c2SCC(=O)Nc2ccc(Cl)c(Cl)c2)c1	5.81	90.3 µM	96%	pEC50 [4]: 5.76; inhibition [5]: Active; Maximum Inhibitory Effect Observed; inhibition [6]: Dose-dependent-effect; Inhibition Effect Were Twice As Potent As Remdesivir At 10 Um; inhibition [7]: Dose-dependent-effect; Inhibition Effect Were Twice As Potent As Remdesivir At 10 Um
